Here are results for 3 molecules from patent US5932709A (University of Michigan, priority 1997, dated 1999).

Series [1] is described as follows: Murine B16 melanoma model in vivo. Details: species or system mouse (B6D2F1). The settings on record: mouse, in vivo, ip; i.p. daily×5. An outline of the steps:
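B6D2F1 mice inoculated i.p. on day 0 with B16 melanoma brei taken from s.c. tumors; MTD determined in non-tumored mice when dosing is unknown. Activity expressed as T/C% of mean survival, with 60-day survivors counted as cures.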

Series [2] can be described thus: Murine P388 leukemia model in vivo. The arrangement: species or system mouse (B6D2F1). The settings on record: mouse, in vivo, ip; i.p. daily×5. Put shortly: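 B6D2F1 mice inoculated i.p. with 1×10^6 P388 leukemia cells (from ascites, resuspended in saline) on day 0; dosing at MTD from dose-finding in non-tumored mice where no dosing information exists. Mean survival of treated over control mice gives T/C×100% (increase in life span).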

Series [3] is described as follows: Solubility of HAR7 in various solvents and solvent systems. The class given is physicochemical. As to the method:
In addition to testing for water solubility, one of the analogs of the present invention, HAR7, was tested for solubility in various other solvents and solvent mixtures, to determine the system which provides the greatest solubility for the analog. The results of those solubility experiments are shown below in Table 2:
The solubility of HAR7 in various solvents and solvent systems was measured using one of two experimental methods, depending on the conditions and solvents used.
First, an evaporation method was used in which an excess quantity of HAR7 was added to the solvent of choice. The mixture was finely divided using ultrasonic vibration in order to dissolve the material thoroughly. The resulting mixture was filtered and the solution was evaporated to dryness using a rotary evaporator.
Second, a spectrophotometric method was used in which an excess quantity of HAR7 was added to the solvent of choice. The mixture was finely divided using ultrasonic vibration in order to dissolve the maximum amount of solid. The resulting suspension was filtered through a 0.45 μm nylon filter, and the clear solution was diluted in the same solvent and its concentration was measure spectrophotometrically, based upon an extinction coefficient of 17000 at 258 nm.

The test system of series [4] is human lung tumor xenograft. The series is described as follows: Human lung tumor xenograft model. The format is in vivo, human tumor in nude mice. An excerpt:
(§1) For the human lung and prostate tumor xenograft models the following procedure was used. Nude mice were implanted s.c. by trocar with fragments of human lung or prostate carcinomas harvested from s.c. growing tumors in nude mice hosts. When tumors were approximately 5 mm×5 mm in size (usually ten to fourteen days after inoculation), the animals were pair-matched into treatment and control groups. Each group contained 10 tumored mice, each of which was ear-tagged and followed individually throughout the experiment. […] The doses, route of drug administration and schedule were selected as appropriate for the study in question. (See above protocol). […] Topotecan was run as a positive control at its MTD dose on a daily×5 and a daily×1 schedule. Male nude mice were used for both prostate studies.
(§2) Mice are weighed twice weekly, and tumor measurements were taken by calipers twice weekly, starting on day 1.
(§3) Some drugs cause tumor shrinkage in the human tumor xenograft models. […] A mean % tumor shrinkage can be calculated from the data from the mice in a group that experienced tumor regressions.

Series [5] deals with human prostate tumor xenograft. The series is described as follows: Human prostate tumor xenograft model. The class given is in vivo, human tumor in nude mice.
Description: as §1, §2, §3
(In general: Xenograft models place foreign cells or tissue in a host animal.)

As a reminder, the solubility is the concentration that dissolves in the medium under given conditions.

SMILES strings stand for the structures. ≈ marks a conversion by molar mass, not a printed value.

Molecule `CC[C@@]1(O)C(=O)OCc2c1cc1n(c2=O)Cc2c-1nc1ccccc1c2CO[C@@H]1C=C[C@H](OC(C)=O)[C@@H](COC(C)=O)O1` [HAR4, 7-[4,6-di-O-acetyl-2,3-dideoxy-α-D-erythro-hex-2-enopyranosyl]oxymethylcamptothecin] yielded an MTD in series [1] of 20 mg/kg.

`CC[C@@]1(O)C(=O)OCc2c1cc1n(c2=O)Cc2c-1nc1ccccc1c2CO[C@@H]1C=C[C@H](O[C@H]2O[C@H](CO)[C@@H](O)[C@H](O)[C@H]2O)[C@@H](CO)O1` [HAR6, 7-[4-O-(α-D-glucopyranosyl)-2,3-dideoxy-α-D-erythro-hex-2-enopyranosyl]-oxymethylcamptothecin]: the MTD in series [1] and in series [2] was 100 mg/kg in each case.

For the molecule `CC[C@@]1(O)C(=O)OCc2c1cc1n(c2=O)Cc2c-1nc1ccccc1c2CO[C@@H]1C=C[C@H](O)[C@@H](CO)O1` [HAR7, 7-[2,3-dideoxy-α-D-erythro-hex-2-enopyranosyl]-oxymethylcamptothecin], the solubility in series [3] (0.1 m citrate buffer, aqueous buffer) was determined as 24 µg/mL (≈ 47.4 µM); in series [3] (0.2 m acetate buffer, aqueous buffer) it was 23 µg/mL (≈ 45.4 µM); in series [3] (0.2 m na2hpo4 buffer, aqueous buffer), 30 µg/mL (≈ 59.2 µM); in series [3] (0.2 m nah2po4 buffer, aqueous buffer), 32 µg/mL (≈ 63.2 µM); in series [3] (2 m acetate buffer, aqueous buffer) it was 29 µg/mL (≈ 57.3 µM); in series [3] (4:1:5 pg/ethanol/dsw, organic solvent or mixture), 960 µg/mL (≈ 1900 µM). Also, the solubility stood at 893 µg/mL (≈ 1760 µM) in series [3] (4:1:5 pg/ethanol/saline, organic solvent or mixture); 740 µg/mL (≈ 1460 µM) in series [3] (4:1:5 pg/ethanol/water, organic solvent or mixture); 177 µg/mL (≈ 349 µM) in series [3] (5% ethanol/dsw, organic solvent or mixture); 80 µg/mL (≈ 158 µM) in series [3] (5% ethanol/water, organic solvent or mixture); 143 µg/mL (≈ 282 µM) in series [3] (10% ethanol/water, organic solvent or mixture); 380 µg/mL (≈ 750 µM) in series [3] (20% ethanol/water, organic solvent or mixture). For the same molecule, the solubility in series [3] (organic solvent or mixture, PEG 300 (Polyethylene Glycol 300)) is greater than 5000 µg/mL; in series [3] (pure ethanol, organic solvent or mixture) it was 1980 µg/mL (≈ 3920 µM). Moreover, the “complete disappearance of tumors (animals)” value in series [4] (30 mg/kg daily×5) was found to be 2. Further, the Deaths in series [4] (30 mg/kg × 5 days) is recorded as 0/10; in series [4] (200 mg single ds), 1/10; in series [5] (30 mg/kg × 5 days) it was 0/10; in series [5] (100 mg single ds), 0/10; in series [5] (200 mg single ds) it was 0/10. Also, the “Shrink (% Tumor Shrinkage Rate)” value was 100% in series [4] (30 mg/kg × 5 days), 67% in series [4] (200 mg single ds) and 20% in series [5] (100 mg single ds). The “Shrink (number of animals)” value in series [4] (30 mg/kg × 5 days) is on record as 2/10; in series [4] (200 mg single ds), 2/10; in series [5] (30 mg/kg × 5 days) it was 0/10; in series [5] (100 mg single ds), 1/10; in series [5] (200 mg single ds), 0/10. Further, the “TGI (% Tumor Growth Inhibition Rate)” value in series [4] (30 mg/kg × 5 days) turned out to be 67%; in series [4] (200 mg single ds), 64%; in series [5] (30 mg/kg × 5 days), 77%; in series [5] (100 mg single ds) it was 51%; in series [5] (200 mg single ds), 80%. Moreover, the “TGI (number of animals)” value in series [4] (30 mg/kg × 5 days) is given as 8/10; in series [4] (200 mg single ds), 7/10; in series [5] (30 mg/kg × 5 days) it was 10/10; in series [5] (100 mg single ds), 9/10; in series [5] (200 mg single ds), 10/10. For the same molecule, the “activity against lung xenograft model” value in series [4] (in words) is on record as “outstanding activity”. Further, the “efficacy, single dose” value in series [4] (single dose, in words) is listed as “significant tumor growth inhibition”; in series [5] (single dose, in words) it was “significant tumor growth inhibition”. Further, the “activity against prostate xenograft model” value in series [5] (in words) is on record as “outstanding activity”.
